System: human primary T-cells, IL-2 stimulated proliferation (JAK-1 and JAK-3 dependent; reported as JAK3 activity)
Experiment: Human primary T-cell proliferation stimulated by IL-2 (Example 3)
Type: cell-based
Conditions: Homo sapiens, T-cell, tested under conditions described in Example 3 (IL-2 stimulated human primary T-cell proliferation); read-out: ability to inhibit JAK3 activity, IC50 range (Table V)
How it was run: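 Peripheral-blood human T-cells pre-activated via TCR/CD28, IL-2-starved overnight, then cultured 72 h at 37 °C with compound in Yssel's medium containing IL-2 (80 U/mL in cell suspension). Proliferation read as viable-cell ATP by CellTiter-Glo luminescence; reduction versus control taken as JAK pathway inhibition.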

| Structure (SMILES) | IC50 |
| --- | --- |
| Cc1cnc(Nc2ccc(OCC3CCCCC3)c(C(F)(F)F)c2)nc1Nc1ccc2oc(=O)[nH]c2c1 [Compound I-179, 5-[2-(4-Cyclohexylmethoxy-3-trifluoromethyl-phenylamino)-5-methyl-pyrimidin-4-ylamino]-3H-benzooxazol-2-one] | > 10000 nM |
| Cc1cnc(Nc2ccc(Cl)c(OC(F)(F)F)c2)nc1Nc1ccc2oc(=O)[nH]c2c1 [Compound I-180, 5-[2-(4-Chloro-3-trifluoromethoxy-phenylamino)-5-methyl-pyrimidin-4-ylamino]-3H-benzooxazol-2-one] | < 500 nM |
| COc1cc(Nc2ncc(C)c(Nc3ccc4oc(=O)[nH]c4c3)n2)ccc1Cl [Compound I-181, 5-[2-(4-Chloro-3-methoxy-phenylamino)-5-methyl-pyrimidin-4-ylamino]-3H-benzooxazol-2-one] | < 500 nM |
| CCOc1cc(Nc2ncc(C)c(Nc3ccc4oc(=O)[nH]c4c3)n2)ccc1Cl [Compound I-182, 5-[2-(4-Chloro-3-ethoxy-phenylamino)-5-methyl-pyrimidin-4-ylamino]-3H-benzooxazol-2-one] | < 500 nM |
| COc1cc(Nc2ncc(C)c(Nc3ccc4oc(=O)[nH]c4c3)n2)ccc1F [Compound I-183, 5-[2-(4-Fluoro-3-methoxy-phenylamino)-5-methyl-pyrimidin-4-ylamino]-3H-benzooxazol-2-one] | < 500 nM |
| Cc1cnc(Nc2cc(Cl)cc(Cl)c2)nc1Nc1ccc2oc(=O)[nH]c2c1 [Compound I-184, 5-[2-(3,5-Dichloro-phenylamino)-5-methyl-pyrimidin-4-ylamino]-3H-benzooxazol-2-one] | < 500 nM |
| Cc1cnc(Nc2cc(Cl)cc(Br)c2)nc1Nc1ccc2oc(=O)[nH]c2c1 [Compound I-185, 5-[2-(3-Bromo-5-chloro-phenylamino)-5-methyl-pyrimidin-4-ylamino]-3H-benzooxazol-2-one] | > 10000 nM |
| Cc1cnc(Nc2cc(F)cc(Cl)c2)nc1Nc1ccc2oc(=O)[nH]c2c1 [Compound I-186, 5-[2-(3-Chloro-5-fluoro-phenylamino)-5-methyl-pyrimidin-4-ylamino]-3H-benzooxazol-2-one] | < 500 nM |
| Cc1cnc(Nc2cc(Cl)cc(C#N)c2)nc1Nc1ccc2oc(=O)[nH]c2c1 [Compound I-187, 3-Chloro-5-[5-methyl-4-(2-oxo-2,3-dihydro-benzooxazol-5-ylamino)-pyrimidin-2-ylamino]-benzonitrile] | < 500 nM |
| Cc1cnc(Nc2ccc(Br)c(C(F)(F)F)c2)nc1Nc1ccc2oc(=O)[nH]c2c1 [Compound I-188, 5-[2-(4-Bromo-3-trifluoromethyl-phenylamino)-5-methyl-pyrimidin-4-ylamino]-3H-benzooxazol-2-one] | < 500 nM |
| Cc1cnc(Nc2cc(Br)cc(C(F)(F)F)c2)nc1Nc1ccc2oc(=O)[nH]c2c1 [Compound I-189, 5-[2-(3-Bromo-5-trifluoromethyl-phenylamino)-5-methyl-pyrimidin-4-ylamino]-3H-benzooxazol-2-one] | < 500 nM |
| Cc1cc(Nc2ncc(C)c(Nc3ccc4oc(=O)[nH]c4c3)n2)ccc1C(=O)NC1CCC1 [Compound I-190, N-Cyclobutyl-2-methyl-4-[5-methyl-4-(2-oxo-2,3-dihydro-benzooxazol-5-ylamino)-pyrimidin-2-ylamino]-benzamide] | < 500 nM |
| Cc1cnc(Nc2ccc(OCCN3CCOCC3)c(Cl)c2)nc1Nc1ccc2oc(=O)[nH]c2c1 [Compound I-191, 5-{2-[3-Chloro-4-(2-morpholin-4-yl-ethoxy)-phenylamino]-5-methyl-pyrimidin-4-ylamino}-3H-benzooxazol-2-one] | < 500 nM |
| Cc1cnc(Nc2ccc(OCCN3CCOCC3)cc2)nc1Nc1ccc2oc(=O)[nH]c2c1 [Compound I-192, 5-{5-Methyl-2-[4-(2-morpholin-4-yl-ethoxy)-phenylamino]-pyrimidin-4-ylamino}-3H-benzooxazol-2-one] | < 500 nM |
| COc1cc(Nc2ncc(C)c(Nc3ccc4oc(=O)[nH]c4c3)n2)c(F)cc1F [Compound I-193, 5-[2-(2,4-Difluoro-5-methoxy-phenylamino)-5-methyl-pyrimidin-4-ylamino]-3H-benzooxazol-2-one] | 500 to 5000 nM |
